According to patent US6509355B1, “Treatment of disorders of the outer retina” (Alcon Laboratories, Inc., priority 1998, dated 2003):

Columns and labels:
[1] = target: NR1A/NR2B subtype of the polyamine binding site of the NMDA receptor (Homo sapiens, UniProt Q05586+Q13224); details: cited from earlier work
[2] = test system: photo-oxidative induced retinopathy; assay: Photo-oxidative induced retinopathy: 6-hour blue light exposure, ERG after 5-day recovery
From the text: Photic retinopathy results from excessive excitation of the retinal pigment epithelium and neuroretina by absorption of visible or near ultraviolet radiation. Lesion severity is dependent upon wavelength, irradiance, exposure duration, species, ocular pigmentation, and age. Damage may result from peroxidation of cellular membranes, inactivation of mitochondrial enzymes such as cytochrome oxidase, or increased intracellular calcium. Cellular damage resulting from photo-oxidative stress leads to cell death by apoptosis, (Shahinfar, S., Edward. D. P. and Tso, M. O. (1991), A pathologic study of photoreceptor cell death in retinal photic injury. Current Eye Research, 10:47-59: Abler, A. S., Chang, C. J., Fu, J. and Tso, M. O. (1994), Photic injury triggers apoptosis of photoreceptor cells. Investigative Ophthalmology & Visual Science, 35(Suppl):1517). Oxidative stress induced apoptosis has been implicated as a cause of many ocular pathologies, including, iatrogenic retinopathy, macular degeneration, retinitis pigmentosa and other forms of heredodegenerative disease, ischemic retinopathy, retinal tears, retinal detachment, glaucoma and retinal neovascularization (Chang, C. J., Lai, W. W., Edward, D. P. and Tso, M. O. (1995), Apoptotic photoreceptor cell death after traumatic retinal detachment in humans, Archives of Ophthalmology, 113:880-886: Portera-Cailliau, C., Sung, C. H., Nathans, J. and Adler, R. (1994), Apoptotic photoreceptor cell death in mouse models of retinitis pigmentosa, Proceedings of National Academy of Science (U.S.A.), 91:974-978; Buchi, E. R. (1992), Cell death in the rat retina after a pressure-induced ischaemia-reperfusion insult: an electron microscopic study. I. Ganglion cell layer and inner nuclear layer, Experimental Eye Research, 55:605-613; Quigley, H. A., Nickells. R. W., Kerrigan, L. A., Pease, M. E., Thibault, D. J. and Zack, D. J. (1995), Retinal ganglion cell death in experimental glaucoma and after axotomy occurs by apoptosis, Investigative Ophthalmology & Visual Science, 36:774-786). […] Alan R. Liss, Inc., New York; Collier, R., W. Waldron and Zigman, S. (1989), Temporal sequence of changes to the gray squirrel retina after near-UV exposure, Investigative Ophthalmology & Visual Science, 30:631-637), non-human primates (Tso, M. O. M. (1973), Photic maculopathy in rhesus monkey. A light and electron microscopic study. Investigative Ophthalmology & Visual Science, 12:17-34; Ham, W. T., Jr., Ruffolo, J. J., Jr., Mueller, H. A. and Guerry, D., III. (1980), The nature of retinal radiation damage: dependence on wavelength, power level and exposure time, Vision Research, 20:1105-1111; Sperling, H. G., Johnson, C. and Harwerth, R. S. (1980), Differential spectral photic damage to primate cones, Vision Research, 20:1117-1125: Sykes, S. M., Robison, W. G., Jr., Waxler, M. and Kuwabara, T. (1981), Damage to the monkey retina by broad spectrum fluorescent light, Investigative Ophthalmology & Visual Science, 20:425-434; Lawwill, T. (1982), Three major pathologic processes caused by light in the primate retina: A search for mechanisms, Transactions of the American Ophthalmology Society, 80:517-577), and man (Marshall, J. Hamilton, A. M. and Bird, A. C. (1975), Histopathology of ruby and argon laser lesions in monkey and human retina, British Journal of Ophthalmology, 59:610-630; Green, W. R. and Robertson, D. M. (1991), Pathologic findings of photic retinopathy in the human eye. American Journal of Ophthalmology, 112:520-27).

[3] = test system: laser induced thermal burns to the retina; details: cited from earlier work
retinal laser burn = assay: Retinal laser burn spread damage: argon laser, lesion area in outer nuclear layer after 48 hours; type: in vivo, Pigmented Long Evans rats
From the text: The eye is exposed to high-energy laser radiation during the performance of retinal photocoagulation therapy (grid, focal and […]) or during photodynamic therapy. This type of therapy is often employed during treatment of choroidal neovascularization, proliferative stages of diabetic retinopathy, retinopathy of prematurity, or to repair retinal holes or […]. Associated with this laser therapy is tissue destruction leading to vision deterioration. […] It is believed that this vision loss results directly from the expansion of the laser-induced lesion to surrounding normal neurosensory retina and RPE. Singlet oxygen and other reactive oxygen species as well as cytokines are generated in the area of the laser burn and thought to migrate laterally to cause collateral retinal damage. Retinal morphology changes in this area are similar to changes in our photo-oxidative retinopathy paradigm. […] Pigmented Long Evans rats were randomly assigned to control, vehicle or drug dosed groups. […] After a 48-hour recovery period, eyes were fixed, dehydrated, and embedded in plastic resin. Histological assessment of laser burns was performed by flatmounting the retina and sectioning the tissue in a plane tangential to the nerve fiber layer. Using this technique, the lesion area in the outer nuclear layer could be calculated using an image analysis system. […] The laser bum center was marked by; complete closure of all capillaries, arterioles and venuoles; perforation of Bruch's membrane; pyknosis and necrosis of all photoreceptor nuclei; and destruction of inner and outer segments. Spread of the lesion into peripheral retina consisted of shortening of outer segments, inner segment swelling, clumping of melanin granules in the RPE and choroid, and vacuolization of the RPE.

NMDA receptor = assay: Binding affinity to the NMDA receptor; details: order of magnitude only
[4] = test system: light induced functional or morphological changes; assay: Light damage paradigms (light induced damage paradigm); details: in vivo
Method: Eliprodil was evaluated in our light induced damage paradigm, a model of retinal degenerative diseases such as retinitis pigmentosa and age-related macular degeneration.

[5] = test system: mechanical stress induced ischemia reperfusion; details: Arch Ophthal 1993; cited from earlier work

Chain of NR1A/NR2B subtype of the polyamine binding site of the NMDA receptor (Q13224 27-1484, other chains not shown): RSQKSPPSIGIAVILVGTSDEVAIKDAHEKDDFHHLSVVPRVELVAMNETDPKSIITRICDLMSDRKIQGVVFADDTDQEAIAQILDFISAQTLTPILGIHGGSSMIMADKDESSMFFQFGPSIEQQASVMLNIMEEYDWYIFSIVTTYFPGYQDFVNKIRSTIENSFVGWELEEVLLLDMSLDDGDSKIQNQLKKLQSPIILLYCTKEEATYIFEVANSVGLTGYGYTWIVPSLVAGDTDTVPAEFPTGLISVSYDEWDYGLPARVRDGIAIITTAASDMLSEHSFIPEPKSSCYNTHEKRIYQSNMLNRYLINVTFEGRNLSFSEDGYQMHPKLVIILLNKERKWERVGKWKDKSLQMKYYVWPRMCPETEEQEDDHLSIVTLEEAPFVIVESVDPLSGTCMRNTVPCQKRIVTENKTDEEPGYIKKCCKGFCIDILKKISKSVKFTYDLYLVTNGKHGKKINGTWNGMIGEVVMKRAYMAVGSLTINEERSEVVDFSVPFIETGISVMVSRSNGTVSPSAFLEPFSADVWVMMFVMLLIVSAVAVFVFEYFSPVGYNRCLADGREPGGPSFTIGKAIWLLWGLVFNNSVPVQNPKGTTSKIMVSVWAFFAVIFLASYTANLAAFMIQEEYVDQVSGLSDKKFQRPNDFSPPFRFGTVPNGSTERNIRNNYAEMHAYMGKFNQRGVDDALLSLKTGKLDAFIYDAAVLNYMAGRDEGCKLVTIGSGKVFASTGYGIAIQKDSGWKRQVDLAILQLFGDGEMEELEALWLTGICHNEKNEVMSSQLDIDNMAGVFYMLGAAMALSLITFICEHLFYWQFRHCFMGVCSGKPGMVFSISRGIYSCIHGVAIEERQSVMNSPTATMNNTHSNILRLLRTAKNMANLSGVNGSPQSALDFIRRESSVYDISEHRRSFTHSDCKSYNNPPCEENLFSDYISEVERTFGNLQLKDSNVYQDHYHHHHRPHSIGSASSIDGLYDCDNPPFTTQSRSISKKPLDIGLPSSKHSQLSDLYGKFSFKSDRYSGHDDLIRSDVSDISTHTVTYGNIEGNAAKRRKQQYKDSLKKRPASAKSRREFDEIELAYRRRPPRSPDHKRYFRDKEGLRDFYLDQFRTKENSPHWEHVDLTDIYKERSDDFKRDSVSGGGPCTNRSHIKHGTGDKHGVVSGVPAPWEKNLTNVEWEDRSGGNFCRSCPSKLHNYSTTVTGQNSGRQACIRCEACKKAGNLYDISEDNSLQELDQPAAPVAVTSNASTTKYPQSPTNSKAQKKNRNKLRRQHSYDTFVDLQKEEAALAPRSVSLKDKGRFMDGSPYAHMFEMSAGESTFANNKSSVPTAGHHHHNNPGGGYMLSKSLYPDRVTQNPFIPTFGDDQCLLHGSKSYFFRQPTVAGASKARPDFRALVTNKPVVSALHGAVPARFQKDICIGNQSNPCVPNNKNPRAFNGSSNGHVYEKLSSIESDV

C[C@@H]([C@@H](O)c1ccc(O)cc1)N1CCC(O)(c2ccccc2)CC1 [CP-101,606]
subtype preference of NMDA receptor block [1]: preferentially block

C[C@]12N[C@H](Cc3ccccc31)c1ccccc12 [MK-801, reference compound]
dose dependence of protection of outer and inner retina function ([2]; Experiment 1): dose-dependent protection | protection of outer and inner retina function against light induced retinal degeneration ([2]; Experiment 1, 2 mg/kg IP, vs vehicle): No significant protection | protection of outer and inner retina function against light induced retinal degeneration ([2]; Experiment 1, 10 mg/kg IP, vs vehicle): No significant protection | ERG responses compared with control (normal) ([2]; Experiment 1, 20 mg/kg IP): not significantly different than control | protection of outer and inner retina function against light induced retinal degeneration ([2]; Experiment 1, 20 mg/kg IP at 48, 24, 0 h before light, vs vehicle): significant protection | maximum a-wave response amplitude ([2]; Experiment 1, 20 mg/kg IP, controls 734.05 μV): 537.93 μV | maximum b-wave response amplitude ([2]; Experiment 1, 20 mg/kg IP, controls 1807 μV): 1449.77 μV | rescue of RPE and photoreceptor cells (summary) ([2]; summary of Experiments 1 and 2): Complete protection | prevention of photoreceptor loss ([3]; 3 and 20 days post laser exposure): did not significantly prevent | preventing the spread of laser induced thermal burns to the retina ([3]; at 60 days): minimally effective

O[C@@H](CN1CCC(Cc2ccc(F)cc2)CC1)c1ccc(Cl)cc1 [R-eliprodil]
potency relative to eliprodil (racemic) ([2]; rat, in vivo): two-fold less potent | Maximum a-wave response, % of normal ([2]; rat, in vivo, ip, 20 mg/kg): 38% | Maximum b-wave response, % of normal ([2]; rat, in vivo, ip, 20 mg/kg): 36% | protection of outer and inner retina function against light induced retinal degeneration ([2]; rat, in vivo, ip, 20 mg/kg): No significant protection | Response amplitudes, fold higher than vehicle dosed rats ([2]; rat, in vivo, ip, 40 mg/kg): about 2 fold | maximum a-wave response amplitude ([2]; rat, in vivo, ip, 40 mg/kg): 397.25 μV | maximum b-wave response amplitude ([2]; rat, in vivo, ip, 40 mg/kg): 812.87 μV | protection of outer and inner retina function against light induced retinal degeneration ([2]; rat, in vivo, ip, 40 mg/kg): significant protection | response amplitudes, % of normal ([2]; rat, in vivo, ip, 40 mg/kg): ~50% | Maximum a- and b-wave responses, % of normal ([2]; rat, in vivo, ip, 80 mg/kg): approximately 40% | protection of outer and inner retina function against light induced retinal degeneration ([2]; rat, in vivo, ip, 80 mg/kg): No significant retinal protection | lesion area smaller than in vehicle dosed rats (retinal laser burn; 20 mg/kg IP): 16% | significance of lesion area difference from vehicle (retinal laser burn; 20 mg/kg IP): not significantly different | Laser burn lesion area (retinal laser burn; 40 mg/kg IP): 36,016 μ^2 | lesion area smaller than in vehicle dosed rats (retinal laser burn; 40 mg/kg IP): 28% | significance of lesion area difference from vehicle (retinal laser burn; 40 mg/kg IP): significantly diflerent | reduction of collateral retinal damage around the laser burn (summary) (retinal laser burn): significant reduction | binding affinity to the NMDA receptor (NMDA receptor): nanomolar

O[C@H](CN1CCC(Cc2ccc(F)cc2)CC1)c1ccc(Cl)cc1 [S-eliprodil]
potency rank as retinoprotective agent in the series ([2]; rat, in vivo): most potent | potency relative to eliprodil (racemic) ([2]; rat, in vivo): two-fold more potent | difference in ERG response amplitude compared to vehicle dosed rats ([2]; rat, in vivo, ip, 5 mg/kg): No significant difference | Maximum a-wave response, % of normal ([2]; rat, in vivo, ip, 10 mg/kg): 64% | Maximum b-wave response, % of normal ([2]; rat, in vivo, ip, 10 mg/kg): 76% | protection of outer and inner retina function against light induced retinal degeneration ([2]; rat, in vivo, ip, 10 mg/kg): Significant protection | Response amplitudes, fold higher than vehicle dosed rats ([2]; rat, in vivo, ip, 20 mg/kg): about 2 fold | maximum a-wave response amplitude ([2]; rat, in vivo, ip, 20 mg/kg): 418.04 μV | maximum b-wave response amplitude ([2]; rat, in vivo, ip, 20 mg/kg): 1015.95 μV | protection of outer and inner retina function against light induced retinal degeneration ([2]; rat, in vivo, ip, 20 mg/kg): Significant protection | response amplitudes, % of normal ([2]; rat, in vivo, ip, 20 mg/kg): approximately 62% | Laser burn lesion area (retinal laser burn; 20 mg/kg IP): 43,098.5 μ^2 | lesion area smaller than in vehicle dosed rats (retinal laser burn; 20 mg/kg IP): 15% | significance of lesion area difference from vehicle (retinal laser burn; 20 mg/kg IP): not significantly different | reduction of collateral retinal damage around the laser burn (summary) (retinal laser burn): devoid of significant efficacy | binding affinity to the NMDA receptor (NMDA receptor): millimolar

Cc1c(C)c2c(c(C)c1O)CC[C@@](C)(CCC[C@H](C)CCC[C@H](C)CCCC(C)C)O2 [alpha-tocopherol]
preventing light induced functional or morphological changes [4]: ineffective

N=C(N)NC(=O)c1nc(Cl)c(N)nc1N [amiloride]
preventing light induced functional or morphological changes [4]: no effect

COC(=O)C1=C(C)NC(C)=C(C(=O)O[C@H]2CCN(Cc3ccccc3)C2)[C@H]1c1cccc([N+](=O)[O-])c1 [barnidipine]
preventing light induced functional or morphological changes [4]: no effect

COc1ccc2c(c1)[C@]13CCCC[C@@H]1[C@H](C2)N(C)CC3 [dextromethorphan]
protection of inner retina function and RPE function [5]: moderately protected | protective effect for outer retina function [5]: no significant protective effect

Fc1ccc(C(c2ccc(F)cc2)N2CCN(C/C=C/c3ccccc3)CC2)cc1 [flunarizine]
preventing light induced functional or morphological changes [4]: moderately effective

CC(C(O)c1ccc(O)cc1)N1CCC(Cc2ccccc2)CC1 (centres unmarked) [ifenprodil]
subtype preference of NMDA receptor block [1]: preferentially block

Cc1cccc(C)c1NC(=O)CN1CCN(CCCC(c2ccc(F)cc2)c2ccc(F)cc2)CC1 [lidoflazine]
preventing light induced functional or morphological changes [4]: no effect

CC12CC3CC(C)(C1)CC(N)(C3)C2 [memantine, reference compound]
dose dependence of protection of outer and inner retina function ([2]; rat, in vivo): dose-dependent protection | protection of outer and inner retina function against light induced retinal degeneration ([2]; rat, in vivo, ip, 2 mg/kg): no significant protection | ERG responses compared with control (normal) ([2]; rat, in vivo, ip, 20 mg/kg): significantly lower than normal | protection of outer and inner retina function against light induced retinal degeneration ([2]; rat, in vivo, ip, 20 mg/kg): significant protection

COCCOC(=O)C1=C(C)NC(C)=C(C(=O)OC(C)C)C1c1cccc([N+](=O)[O-])c1 (centres unmarked) [nimodipine]
preventing light induced functional or morphological changes [4]: no effect

prenylamine lactate
preventing light induced functional or morphological changes [4]: no effect
